Experimental data: patent publication US10829440B2, “Antibacterial compounds and methods of making and using same” (Brown University, priority 2015, dated 2020)
In brackets after ≈: the same amount, converted by molar mass.

What was measured:
[1] = molecular target: FlgJ (GH73) (Salmonella typhimurium, UniProt P15931); assay: Inhibition of FlgJ (GH73); format: biochemical, Salmonella enterica
Description: Activity was measured as described in Herlihey, et al. 2014, J. Biol Chem 289(45):31029.

[2] = molecular target: LytG (GH73) (Bacillus subtilis, UniProt O32083); assay: In vitro GlcNAcase inhibition, turbidometric assay with purified peptidoglycan; format: biochemical, B. subtilis
LytG (GH73), sequence (O32083 30-282): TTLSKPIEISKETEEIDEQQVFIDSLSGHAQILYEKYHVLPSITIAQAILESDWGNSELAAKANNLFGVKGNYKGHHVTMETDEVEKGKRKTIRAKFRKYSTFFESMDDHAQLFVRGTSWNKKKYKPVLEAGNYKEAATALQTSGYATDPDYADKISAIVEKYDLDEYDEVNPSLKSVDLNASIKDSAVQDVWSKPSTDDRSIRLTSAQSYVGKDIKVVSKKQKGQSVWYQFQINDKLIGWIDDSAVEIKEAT
Description: FIG. 9 is a graph illustrating inhibition of LytG (GH73) from B. subtilis by fgka. The assay involved in vitro GlcNAcase inhibition of B. subtilis LytG by fgka, as measured using turbidometric assays with purified peptidoglycan (Horsburgh, et al., 2003, Biochemistry 42:257).

[3] = tested on: B. subtilis; assay: Resazurin microtiter MIC / serial dilution whole-cell assay; conditions: for Minimum inhibitory concentration (MIC), lowest concentration preventing color change blue to pink: serial dilution 250 μM down to 7.9 μM, triplicate, plates incubated only 30 minutes due to experimental error
Description: (§1) Bacillus subtilis ATCC 11775 was plated on agar from a 20% glycerol stock solution stored at −80° C. Inoculated plates were then incubated at 37° C. under aerobic conditions for 16 hours. Single cultures were transferred to Nutrient Broth (NB) and cultured for 16 hours under the same conditions.
(§2) Second passage cultures were standardized to O.D.600 nm=1.0.
The resazurin microtiter assay procedure described by Palomino and coworkers was used for assessing antimicrobial activity (Palomino. et al., 2002, Antimicrob. Agents Chemother. 46:2720-2722). The assay was performed in LB broth. Resazurin sodium salt powder was prepared in distilled water and filter sterilized at 0.001% (w/v) for MIC assays and at 0.01% (w/v) for single concentration assays. Compounds were first screened in MIC assays to assess whether growth inhibition was dependent on inhibitor concentration. The plates were incubated for 30 min under aerobic conditions. Growth controls containing no inhibitory compound, sterility controls without inoculation, and controls containing a known antibiotic, chloramphenicol, were also included. The innoculum was prepared from second passage cultures in Nutrient Broth (NB) and standardized to O.D.600 nm=1.0 and the wells inoculated with a 1:20 dilution. Serial two-fold dilutions of each compound in 100 μL of medium were prepared directly in 96 well plates at concentrations ranging from 250 μM to 7 μM. After incubation 30 μL of resazurin solution was added to each well and incubated for 30 min. A change in color from blue to pink indicated reduction of resazurin, and therefore bacterial growth. Minimum inhibitory concentration (MIC) was determined as the lowest drug concentration that prevented the color change from blue to pink. Inhibition was quantified by observation of color change. Later studies were carried out at a single inhibitor concentration of 250 μM. The plates were incubated for 4 h under aerobic conditions with the same controls. After incubation 30 μL of resazurin solution was added to each well and incubated for 60 min. Inhibition was quantified by fluorescence readings from plate reader SAFIRE, Firmware: V 2.20 08/02 Safire. […] Plates were held at 37° C. and fluorescence measurements were taken at 0, 5, 10, 20, 30, and 60 min after addition of dye. Lower fluorescence values correlate to greater degrees of inhibition.
Compounds were tested in vivo for their capacity to inhibit B. subtilis growth. […] Resorufin is also fluorescent and can be measured by a plate-reader.
Each dilution was run in triplicate. […] Minimum inhibitory concentration (MIC) was determined as the lowest drug concentration that prevented the color change from blue to pink. The fluorescence was again quantified by a plate reader, and two identical plates were run simultaneously.

[4] = tested on: E. coli; conditions: cited from earlier work
[5] = tested on: B. subtilis; assay: Single concentration (250 μM) whole-cell resazurin fluorescence assay; conditions: for degree of inhibition (smallest values of fluorescence): 250 μM inhibitor, fluorescence at 60 min
Description: as §1, §2
The resazurin microtiter assay procedure described by Palomino and coworkers was used for assessing antimicrobial activity (Palomino. et al., 2002, Antimicrob. Agents Chemother. 46:2720-2722). The assay was performed in LB broth. Resazurin sodium salt powder was prepared in distilled water and filter sterilized at 0.001% (w/v) for MIC assays and at 0.01% (w/v) for single concentration assays. […] Growth controls containing no inhibitory compound, sterility controls without inoculation, and controls containing a known antibiotic, chloramphenicol, were also included. […] Later studies were carried out at a single inhibitor concentration of 250 μM. The plates were incubated for 4 h under aerobic conditions with the same controls. After incubation 30 μL of resazurin solution was added to each well and incubated for 60 min. Inhibition was quantified by fluorescence readings from plate reader SAFIRE, Firmware: V 2.20 08/02 Safire. Excitation wavelength set to 560 nm, emission wavelength set to 590 nm. Well containing dye and non-inoculated cells was used as gain set. Plates were held at 37° C. and fluorescence measurements were taken at 0, 5, 10, 20, 30, and 60 min after addition of dye. Lower fluorescence values correlate to greater degrees of inhibition.
Compounds were tested in vivo for their capacity to inhibit B. subtilis growth. In order to determine growth inhibition, a resazurin whole-cell assay was used (Kuhn, et al., 2014, Medchemcomm 5:1213-1217). […] The resazurin is naturally a blue color, but with reductive species produced during bacterial growth, it is reduced to resorufin, which appears pink. Resorufin is also fluorescent and can be measured by a plate-reader.
In an initial set-up, each compound was evaluated at the single concentration of 250 μM in triplicate. Growth controls containing no inhibitory compound, sterility controls without inoculation, and controls containing a known antibiotic, chloramphenicol, were also included. After incubation of the bacteria with the inhibitors for four hours, resazurin dye was added and the plate was immediately placed in a plate reader. Fluorescence of each well was measured at 590 nm at 0, 5, 10, 20, and 60 min after addition of the dye. A higher growth rate of bacteria produces more resorufin and thus more fluorescence. Lower fluorescence therefore indicates better growth inhibition.
Fluorescence was further evaluated as it developed over time.

[6] = tested on: S. aureus; assay: MIC against Gram-positive organisms: S. aureus; format: cell-based, Staphylococcus aureus; conditions: for MIC: Staphylococcus aureus, read-out: Minimum inhibitory concentration (MIC) S. aureus
[7] = tested on: S. pneumoniae; assay: MIC against Gram-positive organisms: S. pneumoniae; format: cell-based, Streptococcus pneumoniae; conditions: for MIC: Streptococcus pneumoniae, read-out: Minimum inhibitory concentration (MIC) S. pneumoniae
[8] = tested on: B. subtilis; assay: MIC against Gram-positive organisms: B. subtilis; format: cell-based; conditions: Bacillus subtilis; read-out: Minimum inhibitory concentration (MIC) B. subtilis
[9] = tested on: peptidoglycan synthesis/metabolism in B. subtilis; assay: UDP-MurNAc-pentapeptide accumulation (nucleotide sugar extraction, C18-RP-HPLC); format: cell-based, Bacillus subtilis; conditions: 4×MIC for 1 h after chloramphenicol pretreatment
Description: Ugi-derived terminal alkynes target peptidoglycan synthesis/metabolism. B. subtilis was grown to mid-exponential phase (O.D.600˜0.6) and all cultures treated with Chloramphenicol (Cm) ([…]) for 15 min. Cultures were then exposed to vancomycin (Van) ([…]) or fgkc (4×MIC) for 1 h. Nucleotide sugars were extracted with hot water and separated by C18-RP-HPLC. (*) denotes retention time of UDP-MurNAc-pentapeptide.

[10] = tested on: P. difficile; assay: MIC against Gram-positive organisms: P. difficile; format: cell-based, Clostridium difficile (Peptoclostridium difficile); conditions: Clostridioides difficile; read-out: Minimum inhibitory concentration (MIC) P. difficile

FlgJ (GH73), sequence (P15931 whole entry): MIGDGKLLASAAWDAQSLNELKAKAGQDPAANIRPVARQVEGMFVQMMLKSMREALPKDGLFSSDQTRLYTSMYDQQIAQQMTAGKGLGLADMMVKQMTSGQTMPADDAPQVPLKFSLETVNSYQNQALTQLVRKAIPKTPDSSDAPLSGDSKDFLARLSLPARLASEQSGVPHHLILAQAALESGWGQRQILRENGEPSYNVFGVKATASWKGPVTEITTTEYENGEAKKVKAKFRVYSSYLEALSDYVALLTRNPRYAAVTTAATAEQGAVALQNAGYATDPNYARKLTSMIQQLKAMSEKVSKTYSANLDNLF

SMILES: CCCCNC(=O)C(C1CCCCC1)N(Cc1cn(C2OC(CO)C(O)C(O)C2NC(C)=O)nn1)C(=O)c1ccccc1I (stereo not shown) [BI.fgba]
- inhibition of FlgJ (GH73) [1]: weak inhibition
- inhibition of GlcNAcase LytG [2]: inhibits
- MIC ([3]; Bacillus subtilis, read-out: minimum inhibitory concentration (MIC)): 63 µM (≈ 45.8 µg/mL)
- bacteriostatic activity ([3]; bacterial strain B. subtilis): concentration-dependent bacteriostatic activity

SMILES: CC1=N[C@@H]2[C@@H](O)[C@H](O)[C@@H](CO)O[C@@H]2S1 [NAG-thiazoline]
- effect on the viability of E. coli [4]: no effect

SMILES: COc1ccc(C(C(=O)NCc2ccccc2)N(C(=O)c2ccccc2I)c2ccccc2)cc1 (stereo not shown) [fbqb]
- activity (structure-activity comparison) ([5]; 250 μM, compared to aliphatic derivatives): lower activity

SMILES: C#CCN(C(=O)c1ccccc1I)C(C(=O)NCCCC)C1CCCCC1 (stereo not shown) [fgba]
- antibacterial activity against S. aureus [6]: antibacterial activity
- MIC [6]: 2.81 µg/mL (≈ 5.85 µM)
- inhibition of FlgJ (GH73) [1]: weak inhibition

SMILES: C#CCN(C(=O)c1ccccc1I)C(C(=O)NCc1ccccc1)C1CCCCC1 (stereo not shown) [fgbb]
- antibacterial activity against S. pneumoniae [7]: antibacterial activity
- MIC [7]: 3.62 µg/mL (≈ 7.04 µM)

SMILES: C#CCN(C(=O)c1ccccc1I)C(C(=O)NC1CCCCC1)C1CCCCC1 (stereo not shown) [fgbc]
- antibacterial activity against S. pneumoniae [7]: antibacterial activity
- MIC [7]: 3.56 µg/mL (≈ 7.03 µM)

SMILES: CCCCNC(=O)C(C1CCCCC1)N(C(=O)c1ccccc1I)C1CCCCC1 (stereo not shown) [fgka]
- MIC [8]: 11.5 µg/mL (≈ 22 µM)

SMILES: O=C(NCc1ccccc1)C(C1CCCCC1)N(C(=O)c1ccccc1I)C1CCCCC1 (stereo not shown) [fgkb]
- antibacterial activity against B. subtilis Lyt G [5]: antibacterial activity
- degree of inhibition (smallest values of fluorescence) [5]: highest degree of inhibition

SMILES: O=C(NC1CCCCC1)C(C1CCCCC1)N(C(=O)c1ccccc1I)C1CCCCC1 (stereo not shown) [fgkc]
- UDP-MurNAc-pentapeptide accumulation [9]: results in UDP-MurNAc-pentapeptide accumulation
- antibacterial activity against S. pneumoniae [7]: antibacterial activity
- antibacterial activity against B. subtilis Lyt G [5]: antibacterial activity
- degree of inhibition (smallest values of fluorescence) [5]: highest degree of inhibition
- MIC [8]: 1.65 µg/mL (≈ 3 µM)

SMILES: CCCCNC(=O)C(C1CCCCC1)N(C(=O)c1ccccc1I)C(C)(C)C (stereo not shown) [fgna]
- MIC [10]: 17.5 µg/mL (≈ 35.1 µM)

SMILES: CCCCNC(=O)C(C1CCCCC1)N(C(=O)c1ccccc1I)C(C)C (stereo not shown) [fgoa]
- Minimum inhibitory concentration (MIC), lowest concentration preventing color change blue to pink [3]: 62.5 µM (≈ 30.3 µg/mL)

SMILES: CCCCNC(=O)C(C1CCCCC1)N(C(=O)c1ccccc1I)c1ccccc1 (stereo not shown) [fgqa]
- MIC [6]: 3.64 µg/mL (≈ 7.02 µM)

SMILES: C#CCN(C(=O)c1ccccc1)C(C(=O)NCCCC)C1CCCCC1 (stereo not shown) [rgba]
- Minimum inhibitory concentration (MIC), lowest concentration preventing color change blue to pink [3]: 250 µM (≈ 88.6 µg/mL)
